From patent US20240285670A1, “THERAPEUTIC TREATMENT OF TUMORS BY BLOCKING THE HEME SYNTHESIS-EXPORT AXIS” (Università degli Studi di Torino, priority 2021, published 2024)

What was measured:
SKCO1 cells = assay: Mitochondrial ATP levels in SKCO1 cells; assay type: cell-based, human; settings: FLVCR1a-silenced vs scramble shRNA SKCO1 cells
Text: (A, C, E) Activities of the mitochondrial electron transport chain complexes I-IV. FLVCR1a-silenced Caco2 (A), SKCO1 (C) or C80 cells (E) are compared to cells expressing a scramble shRNA. Results were expressed as nmol NAD^+/min/mg mitochondrial protein for complex I, nmol reduced cytochrome c/min/mg mitochondrial protein for complexes II-III, nmol oxidized cytochrome c/min/mg mitochondrial protein for complex IV. Data represent mean±SEM, n=3. For statistical analyses, an unpaired Student's t-test was used; *=p<0.05, **=p<0.01. (B, D, F) Mitochondrial ATP levels measured by a bioluminescent assay kit. FLVCR1a-silenced Caco2 (B), SKCO1 (D) or C80 cells (F) are compared to cells expressing a scramble shRNA. Results are expressed as nmol/mg mitochondrial proteins. […] Results were expressed as nmol NAD^+/min/mg mitochondrial protein for complex I, nmol reduced cytochrome c/min/mg mitochondrial protein for complexes II-III, nmol oxidized cytochrome c/min/mg mitochondrial protein for complex IV. […] (H) Mitochondrial ATP levels measured by a bioluminescent assay kit in Caco2 cells overexpressing FLVCR1a (indicated as FLVCR1a+) compared to cells stably transduced with an empty vector. Results are expressed as nmol/mg mitochondrial proteins. […]
ATP levels in mitochondria extracts were assessed by the ATP Bioluminescent Assay Kit (Sigma-Aldrich, St. Louis, MO USA, catalog n° FLAA). […]

Caco2 cells = assay: Intracellular 5-ALA levels and 13C-isotope labelling (LC-MS) in Caco2 cells; assay type: cell-based, human
Experimental: (A) Heme content in Caco2 cells treated with 5 mM 5-ALA (black bars and white bars) or with 5 mM 5-ALA+0.5 mM SA (light grey outlined bars) for the indicated time points. […] Values are expressed as relative fluorescence intensity. Data represent mean±SEM, n=2. For statistical analyses, a two-way analysis of variance was used, followed by the Bonferroni correction for multiple group comparisons; **=p<0.01, ***=p<0.001. 5-ALA, 5-aminolevulinic acid; SA, succinylacetone. (B) Intracellular 5-ALA levels. […] Values are expressed as peak area/μg proteins. Data represent mean±SEM of n=4 wells pooled from two independent experiments. For statistical analyses, an unpaired Student's t-test was used; **=p<0.01. 5-ALA, 5-aminolevulinic acid. (C, D) Accumulation of ^13C2-5-ALA in cells incubated with U-^13C-glucose (C) or of ^13C3-5-ALA in cells incubated with U-^13C-glutamine (D) for the indicated time. […] Values are expressed as peak area/μg proteins. Data represent mean±SEM of n=4 wells pooled from two independent experiments. For statistical analyses, a two-way analysis of variance was used, followed by the Bonferroni correction for multiple group comparisons; ***p<0.001. […] Transcript abundance, normalized to beta-actin mRNA expression, is expressed as a fold increase over a calibrator sample. […] Band intensities were measured by densitometry and normalized to vinculin expression. […]

## FLVCR1a shRNA: shRNA specifically down-regulating FLVCR1a without targeting FLVCR1b; pLKO.1 lentiviral clone TRCN0000059599, antisense SEQ ID No.: 2 (antisense TTGCTAATGATGCTGTACTGG; sense CCAGTACAGCATCATTAGCAA)
SKCO1 cells
  mitochondrial ATP levels: increased
Caco2 cells; FLVCR1a-silenced vs scramble shRNA Caco2 cells
  Intracellular 5-ALA levels: lower amount of 5-ALA
Caco2 cells; U-13C-glucose or U-13C-glutamine, time course, FLVCR1a-silenced vs scramble
  incorporation of labelled carbons in 5-ALA: reduced incorporation of labelled carbons in 5-ALA
